Data as given in the NIST ThermoML archive (doi:10.1021/je900284z).
“And” between values parts separate entries of the source, which are not always exact repeats. Identical values can stand only once.

Details: Liquid, Falling or rolling sphere viscometry

CC(C)CCCCCCCOC(=O)c1ccccc1C(=O)OCCCCCCCC(C)C
Details	viscosity
273.15 K, 100 kPa	625.8 mPa·s
273.15 K, 9900 kPa	845.1 mPa·s
298.15 K, 100 kPa	87.41 mPa·s and 87.37 mPa·s
298.15 K, 9600 kPa	110.7 mPa·s
298.15 K, 20600 kPa	145 mPa·s
298.15 K, 20700 kPa	145.5 mPa·s
298.15 K, 30100 kPa	182.5 mPa·s
298.15 K, 30300 kPa	183 mPa·s
298.15 K, 40700 kPa	234.2 mPa·s
298.15 K, 50200 kPa	289.4 mPa·s
298.15 K, 59200 kPa	356.2 mPa·s
298.15 K, 71600 kPa	465.4 mPa·s
298.15 K, 82000 kPa	589 mPa·s
298.15 K, 83300 kPa	608.4 mPa·s
313.15 K, 100 kPa	37.71 mPa·s
313.15 K, 10900 kPa	47.29 mPa·s
313.15 K, 21200 kPa	58.95 mPa·s
313.15 K, 30600 kPa	71.54 mPa·s
313.15 K, 40900 kPa	88.99 mPa·s
313.15 K, 51600 kPa	109.1 mPa·s
313.15 K, 62400 kPa	136.7 mPa·s
313.15 K, 71300 kPa	160.8 mPa·s
313.15 K, 80300 kPa	192.4 mPa·s
313.15 K, 89800 kPa	234.4 mPa·s
338.15 K, 100 kPa	13.37 mPa·s [middle of 4 runs]
338.15 K, 9700 kPa	15.54 mPa·s
338.15 K, 10700 kPa	16.28 mPa·s
338.15 K, 19400 kPa	18.62 mPa·s
338.15 K, 20500 kPa	19.38 mPa·s
338.15 K, 31000 kPa	23.29 mPa·s
338.15 K, 31770 kPa	23.04 mPa·s
338.15 K, 40100 kPa	27.24 mPa·s
338.15 K, 41110 kPa	26.91 mPa·s
338.15 K, 50300 kPa	32.42 mPa·s
338.15 K, 51100 kPa	31.86 mPa·s
338.15 K, 60400 kPa	38.31 mPa·s
338.15 K, 60510 kPa	37.34 mPa·s
338.15 K, 70700 kPa	45.25 mPa·s
338.15 K, 70710 kPa	43.6 mPa·s
338.15 K, 80200 kPa	52.53 mPa·s
338.15 K, 80970 kPa	51.73 mPa·s
348.15 K, 100 kPa	9.71 mPa·s
348.15 K, 9800 kPa	11.47 mPa·s
348.15 K, 20600 kPa	13.71 mPa·s
348.15 K, 30230 kPa	15.96 mPa·s
348.15 K, 31300 kPa	16.34 mPa·s
348.15 K, 40810 kPa	18.91 mPa·s
348.15 K, 50600 kPa	22.15 mPa·s
348.15 K, 50710 kPa	22.05 mPa·s
348.15 K, 61220 kPa	25.89 mPa·s
348.15 K, 69800 kPa	29.77 mPa·s
348.15 K, 72330 kPa	30.55 mPa·s
348.15 K, 85770 kPa	37.23 mPa·s
